Test results: patent US6875761B2 (Eisai Co., Ltd., priority 1997, dated 2005)
Where a name gives a salt, the structure may show the parent alone.

Row | Structure (SMILES) | melting point
1 | CCN1CCN(c2nc(-c3ccc(CN4CCSCC4)cc3)cc3ccccc23)CC1 (as salt: hydrochloride) [Example 94, 3-(4-Thiomorpholinylmethylphenyl)-1-(4-ethylpiperazin-1-yl)isoquinoline Hydrochloride] | 193 to 197 °C
2 | CCN1CCN(c2nc(-c3ccc(N4CCOC4=O)cc3)cc3ccccc23)CC1 (as salt: hydrochloride) [Example 95, 3-[4-(3-Oxazolidinone)phenyl]-1-(4-ethylpiperazin-1-yl)isoquinoline Hydrochloride] | 171 to 174 °C
3 | CCN1CCN(c2nc(-c3ccc(N4CCC(O)CC4)cc3)cc3ccccc23)CC1 (as salt: hydrochloride) [Example 97, 1-(4-Ethylpiperazin-1-yl)-3-[4-(4-hydroxypiperidin-1-yl)phenyl]isoquinoline Trihydrochloride] | 178 °C
4 | CCN1CCN(c2nc(-c3ccc(N4CCC(OC)CC4)cc3)cc3ccccc23)CC1 (as salt: hydrochloride) [Example 98, 1-(4-Ethylpiperazin-1-yl)-3-[4-(4-methoxypiperidin-1-yl)phenyl]isoquinoline Trihydrochloride] | 165 °C
5 | CCN1CCN(c2nc(CCc3ccc(OC)cc3)cc3ccccc23)CC1 (as salt: hydrochloride) [Example 106, 1-(1-Ethylpiperazin-4-yl)-3-(4-methoxyphenethyl)isoquinoline] | 224 to 227 °C
6 | CCN1CCN(c2nc(C3CCc4c(OC)cccc43)cc3ccccc23)CC1 (centres unmarked) (as salt: hydrochloride) [Example 113, 3-(4-Methoxyindan-1-yl)-1-(4-ethylpiperazin-1-yl)isoquinoline Hydrochloride] | 108 to 110 °C
7 | CCN1CCN(c2nc(-c3ccc4c(c3)CC(CO)CO4)cc3ccccc23)CC1 (centres unmarked) (as salt: hydrochloride) [Example 122, 3-(3-Hydroxymethylchroman-6-yl)-1-(4-Ethylpiperazin-1-yl)Isoquinoline Hydrochloride] | 168 to 172 °C
8 | CCN1CCN(c2nc(-c3ccccn3)cc3ccccc23)CC1 (as salt: hydrochloride) [Example 123, 1-(4-Ethylpiperazin-1-yl)-3-(2-Pyridyl)Isoquinoline Dihydrochloride] | 160 to 162 °C
9 | CCN1CCN(c2nc(-c3ccc(OCCO)cn3)cc3ccccc23)CC1 (as salt: hydrochloride) [Example 124, 1-(1-Ethylpiperazin-4-yl)-3-[5-(2-Hydroxyethoxy)Pyridin-2-yl]Isoquinoline] | 110 to 115 °C
10 | CCN1CCN(c2nc(-c3ccc(OCCO)nc3)cc3ccccc23)CC1 (as salt: hydrochloride) [Example 125, 1-(1-Ethylpiperazin-4-yl)-3-[2-(2-Hydroxyethoxy)Pyridin-5-yl]Isoquinoline] | 137 to 142 °C
11 | CCN1CCN(c2nc(-c3ccc(OCCOC)nc3)cc3ccccc23)CC1 (as salt: hydrochloride) [Example 126, 1-(1-Ethylpiperazin-4-yl)-3-[2-(2-Methoxyethoxy)Pyridin-5-yl]Isoquinoline] | 115 to 120 °C
12 | CCN1CCN(c2nc(-c3ccc(OCCOC)cn3)cc3ccccc23)CC1 (as salt: hydrochloride) [Example 127, 1-(1-Ethylpiperazin-4-yl)-3-[5-(2-Methoxyethoxy)Pyridin-2-yl]Isoquinoline] | 116 to 119 °C
13 | CCCC(=O)Nc1ccc(-c2cc3ccccc3c(N3CCN(CC)CC3)n2)cn1 (as salt: hydrochloride) [Example 128, 3-(2-propylcarbonylaminopyridin-5-yl)-1-(4-ethylpiperazin-1-yl)isoquinoline hydrochloride] | 168 to 171 °C
14 | CCN1CCN(c2nc(-c3ccc(S(C)(=O)=O)nc3)cc3ccccc23)CC1 (as salt: hydrochloride) [Example 129, 3-[(2-Methylsulfonylpyridin)-5-yl]-1-(4-Ethylpiperazin-1-yl)Isoquinoline Hydrochloride] | 248 to 250 °C
